Results taken from patent US20240109853A1 (Shanghai Yao Yuan Biotechnology Co., Ltd., priority 2020, published 2024).
Where two headings read alike, the source gives them in different places.

Assays:
ALPK1 = ALPK1 (Homo sapiens (Human), UniProt Q96QP1); experiment: ALPK1 in vitro kinase assay (HTRF of TIFA phosphorylation); format: biochemical
hALPK1-V1092A = hALPK1-V1092A (Homo sapiens (Human), UniProt Q96QP1, V1092A); experiment: cell-based
Experimental: Accordingly, we used IL-8 secretion as an indicator of activated ALPK1 inhibition in cells expressing these mutations.
Transfection was performed according to manufacturer's protocols (Lipofectamine™ 3000, ThermoFisher). Transfected cells were selected, seeded onto 96-well plates and treated with serial dilutions of the test compounds for 6.5 hr. Following treatment, cell viability was determined using a luminescent cell viability assay (Cell Counting-Lite Assay or “CCL Assay” from Vazyme Biotech Co., Ltd.) and cell free supernatants were collected and analyzed for IL-8 protein by IL-8 ELISA as described above.
Fresh medium and compound were added at 18 hours. Cell viability and IL-8 secretion were determined 6 hours after the second addition of compound, using the CCL assay and IL-8 ELISA as described above.

[1] = system: ALPK1-dependent NFκB reporter gene activation in HEK293 cells stably expressing an NF-kB reporter (G9 cells); experiment: NFκB gene reporter alkaline phosphatase assay; format: cell-based; conditions: read-out: NFkB assay IC50
How it was run: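 HEK293 G9 cells stably carrying an NF-kB alkaline phosphatase reporter were seeded at 10,000 cells/well in Freestyle 293 medium and attached overnight. They were pretreated with serially diluted compound for 30 min, then stimulated with D-glycero-D-manno-6-fluoro-heptose-1β-S-ADP. Reporter phosphatase was read with pNPP; IC50 from logistic fit.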

[2] = ALPK1 2 nM, TIFA substrate, ADP-Heptose activator, HTRF readout

Chain of hALPK1-V1092A (Q96QP1 whole entry V1092A): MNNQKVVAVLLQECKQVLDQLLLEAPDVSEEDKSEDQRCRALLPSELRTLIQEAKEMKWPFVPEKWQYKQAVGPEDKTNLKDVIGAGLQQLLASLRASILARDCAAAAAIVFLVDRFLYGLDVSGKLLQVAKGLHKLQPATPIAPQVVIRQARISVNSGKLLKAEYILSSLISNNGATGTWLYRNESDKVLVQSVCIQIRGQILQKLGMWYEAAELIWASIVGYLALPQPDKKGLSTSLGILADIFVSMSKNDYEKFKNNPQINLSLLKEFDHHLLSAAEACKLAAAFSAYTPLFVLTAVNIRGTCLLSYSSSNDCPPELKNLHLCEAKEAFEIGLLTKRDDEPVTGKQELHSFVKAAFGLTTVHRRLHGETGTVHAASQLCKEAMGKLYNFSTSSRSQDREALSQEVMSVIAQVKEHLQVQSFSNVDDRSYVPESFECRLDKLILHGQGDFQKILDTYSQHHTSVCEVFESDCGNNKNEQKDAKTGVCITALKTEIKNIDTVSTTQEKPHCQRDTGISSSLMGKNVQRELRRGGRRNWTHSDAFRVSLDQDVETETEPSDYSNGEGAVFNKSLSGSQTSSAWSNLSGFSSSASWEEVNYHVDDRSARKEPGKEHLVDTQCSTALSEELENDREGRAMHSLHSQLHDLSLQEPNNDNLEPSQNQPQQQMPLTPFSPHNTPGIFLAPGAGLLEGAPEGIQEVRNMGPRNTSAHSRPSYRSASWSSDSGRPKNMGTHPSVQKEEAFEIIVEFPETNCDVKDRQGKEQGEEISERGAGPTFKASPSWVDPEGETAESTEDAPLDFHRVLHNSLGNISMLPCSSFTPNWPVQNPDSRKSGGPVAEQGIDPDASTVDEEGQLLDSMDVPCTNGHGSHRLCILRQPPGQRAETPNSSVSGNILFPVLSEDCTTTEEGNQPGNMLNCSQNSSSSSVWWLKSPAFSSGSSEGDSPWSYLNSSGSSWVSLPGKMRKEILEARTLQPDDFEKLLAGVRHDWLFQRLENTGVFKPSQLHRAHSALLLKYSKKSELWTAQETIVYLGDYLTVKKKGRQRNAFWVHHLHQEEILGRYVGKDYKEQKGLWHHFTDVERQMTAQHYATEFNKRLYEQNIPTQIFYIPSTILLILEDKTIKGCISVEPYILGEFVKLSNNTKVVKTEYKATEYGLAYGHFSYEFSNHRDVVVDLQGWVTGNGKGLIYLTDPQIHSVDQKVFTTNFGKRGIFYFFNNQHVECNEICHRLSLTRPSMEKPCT
Chain of ALPK1 (Q96QP1 whole entry): as the sequence (Q96QP1 whole entry V1092A) above, with A1092V counted along it

Row | SMILES | IC50 (ALPK1) | IC50 (hALPK1-V1092A) | IC50 ([1]; Homo sapiens, HEK293) | IC50 [1] | IC50 (ALPK1; [2])
1 | C#C[C@@](C)(c1ccc(Cl)cc1)c1csc(NC(=O)N2CC(CN3CCNCC3)C2)n1 (stereo in doubt) [Example A292, N-(4-(2-(4-chlorophenyl)but-3-yn-2-yl)thiazol-2-yl)-3-(piperazin-1-ylmethyl)azetidine-1-carboxamide] | 43 nM | 547 nM | 650 nM | – | –
2 | C#C[C@@](C)(c1ccc(Cl)cc1)c1csc(NC(=O)NC(C)CO)n1 (stereo in doubt) [Example A312, 1-(4-(2-(4-chlorophenyl)but-3-yn-2-yl)thiazol-2-yl)-3-(1-hydroxypropan-2-yl)urea] | – | 16000 nM | 2120 nM | – | –
3 | C#C[C@@](C)(c1ccc(Cl)cc1)c1csc(NC(=O)NC(C)CO)n1 (stereo in doubt) [Example A313, 1-(4-(2-(4-chlorophenyl)but-3-yn-2-yl)thiazol-2-yl)-3-(1-hydroxypropan-2-yl)urea] | – | 10200 nM | – | 2820 nM | –
4 | C#C[C@](C)(c1ccc(Cl)cc1)c1csc(NC(=O)NC(C)CO)n1 (stereo in doubt) [Example A314, 1-(4-(2-(4-chlorophenyl)but-3-yn-2-yl)thiazol-2-yl)-3-(1-hydroxypropan-2-yl)urea] | – | 4000 nM | 800 nM | – | –
5 | C#C[C@](C)(c1ccc(Cl)cc1)c1csc(NC(=O)NC(C)CO)n1 (stereo in doubt) [Example A315, 1-(4-(2-(4-chlorophenyl)but-3-yn-2-yl)thiazol-2-yl)-3-(1-hydroxypropan-2-yl)urea] | – | 2770 nM | – | 650 nM | –
6 | C#C[C@](C)(c1ccc(Cl)cc1)c1csc(NC(=O)NCC(C)O)n1 (stereo in doubt) [Example A316, 1-(4-(2-(4-chlorophenyl)but-3-yn-2-yl)thiazol-2-yl)-3-(2-hydroxypropyl)urea] | – | 16400 nM | 1810 nM | – | –
7 | C#C[C@@](C)(c1ccc(Cl)cc1)c1csc(NC(=O)NCC(C)O)n1 (stereo in doubt) [Example A317, 1-(4-(2-(4-chlorophenyl)but-3-yn-2-yl)thiazol-2-yl)-3-(2-hydroxypropyl)urea] | – | 1930 nM | 970 nM | – | –
8 | C#C[C@@](C)(c1ccc(Cl)cc1)c1csc(NC(=O)NCC(C)O)n1 (stereo in doubt) [Example A319, 1-(4-(2-(4-chlorophenyl)but-3-yn-2-yl)thiazol-2-yl)-3-(2-hydroxypropyl)urea] | – | 7860 nM | – | 670 nM | –
9 | C#C[C@](C)(c1ccc(Cl)cc1)c1csc(NC(=O)c2ccc(N3CCNCC3)cc2)n1 (stereo in doubt) [Example B068, N-(4-(2-(4-chlorophenyl)but-3-yn-2-yl)thiazol-2-yl)-4-(piperazin-1-yl)benzamide] | – | 27100 nM | – | – | 530 nM
10 | C#C[C@](C)(c1ccc(Cl)cc1)c1csc(NC(=O)c2c(F)ccc(N3CCNCC3)c2F)n1 (stereo in doubt) [Example B075, N-(4-(2-(4-chlorophenyl)but-3-yn-2-yl)thiazol-2-yl)-2,6-difluoro-3-(piperazin-1-yl)benzamide] | – | 13000 nM | – | – | 308 nM
11 | C#C[C@@](C)(c1ccc(Cl)cc1)c1csc(NC(=O)c2c(F)ccc(N3CCNCC3)c2F)n1 (stereo in doubt) [Example B076, N-(4-(2-(4-chlorophenyl)but-3-yn-2-yl)thiazol-2-yl)-2,6-difluoro-3-(piperazin-1-yl)benzamide] | – | 128 nM | – | – | 85 nM
12 | C#C[C@](C)(c1ccc(F)cc1)c1csc(NC(=O)c2c(F)cc(N3CCNCC3)cc2F)n1 (stereo in doubt) [Example C034, 2,6-difluoro-N-(4-(2-(4-fluorophenyl)but-3-yn-2-yl)thiazol-2-yl)-4-(piperazin-1-yl)benzamide] | – | 277 nM | – | – | 40 nM
13 | C#C[C@@](C)(c1ccc(F)cc1)c1csc(NC(=O)c2c(F)cc(N3CCNCC3)cc2F)n1 (stereo in doubt) [Example C035, 2,6-difluoro-N-(4-(2-(4-fluorophenyl)but-3-yn-2-yl)thiazol-2-yl)-4-(piperazin-1-yl)benzamide] | – | 67 nM | – | – | 19 nM
14 | C#C[C@](C)(c1ccc(Cl)c(F)c1)c1csc(NC(=O)c2c(F)cc(N3CCNCC3)cc2F)n1 (stereo in doubt) [Example C037, N-(4-(2-(4-chloro-3-fluorophenyl)but-3-yn-2-yl)thiazol-2-yl)-2,6-difluoro-4-(piperazin-1-yl)benzamide] | – | 8300 nM | – | – | 151 nM
15 | C#C[C@@](C)(c1ccc(Cl)c(F)c1)c1csc(NC(=O)c2c(F)cc(N3CCNCC3)cc2F)n1 (stereo in doubt) [Example C038, N-(4-(2-(4-chloro-3-fluorophenyl)but-3-yn-2-yl)thiazol-2-yl)-2,6-difluoro-4-(piperazin-1-yl)benzamide] | – | 352 nM | – | – | 17 nM
16 | C#C[C@](C)(c1ccc(C)cc1)c1csc(NC(=O)c2c(F)cc(N3CCNCC3)cc2F)n1 (stereo in doubt) [Example C040, 2,6-difluoro-N-[4-[1-methyl-1-(p-tolyl)prop-2-ynyl]thiazol-2-yl]-4-piperazin-1-yl-benzamide] | – | 68 nM | – | – | 29 nM

Row | SMILES | IC50 (ALPK1) | IC50 (hALPK1-V1092A) | IC50 ([1]; Homo sapiens, HEK293) | IC50 [1] | IC50 (ALPK1; [2])
17 | C#C[C@@](C)(c1ccc(C)cc1)c1csc(NC(=O)c2c(F)cc(N3CCNCC3)cc2F)n1 (stereo in doubt) [Example C041, 2,6-difluoro-N-[4-[1-methyl-1-(p-tolyl)prop-2-ynyl]thiazol-2-yl]-4-piperazin-1-yl-benzamide] | – | 954 nM | – | – | 7 nM
18 | C#C[C@@](C)(c1ccc(OC)cc1)c1csc(NC(=O)c2c(F)cc(N3CCNCC3)cc2F)n1 (stereo in doubt) [Example C048, 2,6-difluoro-N-(4-(2-(4-methoxyphenyl)but-3-yn-2-yl)thiazol-2-yl)-4-(piperazin-1-yl)benzamide] | – | 5570 nM | – | – | 16 nM
19 | C#C[C@](C)(c1ccc(Cl)cc1)c1csc(NC(=O)NCCO)n1 [Example A175, (R)-1-(4-(2-(4-chlorophenyl)but-3-yn-2-yl)thiazol-2-yl)-3-(2-hydroxyethyl)urea] | 32 nM | 4030 nM | 1310 nM | – | –
20 | C#C[C@@](C)(c1ccc(Cl)cc1)c1csc(NC(=O)NCCO)n1 [Example A176, (S)-1-(4-(2-(4-chlorophenyl)but-3-yn-2-yl)thiazol-2-yl)-3-(2-hydroxyethyl)urea] | 5.4 nM | 1550 nM | 280 nM | – | –
21 | C#CC(C)(c1ccc(Cl)cc1)c1csc(NC(=O)NCC(O)CO)n1 (stereo not shown) [Example A244, 1-(4-(2-(4-chlorophenyl)but-3-yn-2-yl)thiazol-2-yl)-3-(2,3-dihydroxypropyl)urea] | 72 nM | 4790 nM | 1030 nM | – | –
22 | C#C[C@@](C)(c1ccc(Cl)cc1)c1csc(NC(=O)N2CC(c3ccc(N4CCNCC4)c(F)c3)C2)n1 [Example A245] | 16 nM | 304 nM | 680 nM | – | –
23 | C#CC(C)(c1ccc(F)cc1)c1csc(NC(=O)c2c(F)cc(N3CCNCC3CO)cc2F)n1 (stereo not shown) [Example B099, 2,6-difluoro-N-[4-[1-(4-fluorophenyl)-1-methyl-prop-2-ynyl]thiazol-2-yl]-4-[2-(hydroxymethyl)piperazin-1-yl]benzamide] | – | 427 nM | – | – | 30 nM
24 | C#CC(C)(c1ccc(OC)cc1)c1csc(NC(=O)c2c(F)cc(N3CCNCC3CO)cc2F)n1 (stereo not shown) [Example B100, 2,6-difluoro-4-[2-(hydroxymethyl)piperazin-1-yl]-N-[4-[1-(4-methoxyphenyl)-1-methyl-prop-2-ynyl]thiazol-2-yl]benzamide] | – | 429 nM | – | – | 21 nM
25 | CC(c1ccccc1)c1csc(NC(=O)c2c(F)cc(N3CCNCC3)cc2F)n1 (stereo not shown) [Example C002, 2,6-difluoro-N-(4-(1-phenylethyl)thiazol-2-yl)-4-(piperazin-1-yl)benzamide] | – | 3370 nM | – | – | 47 nM
26 | C#C[C@@](C)(c1ccc(Cl)cc1)c1csc(NC(=O)c2c(F)cc(N3CCN(C)CC3)cc2F)n1 [Example C011, (S)-N-(4-(2-(4-chlorophenyl)but-3-yn-2-yl)thiazol-2-yl)-2,6-difluoro-4-(4-methylpiperazin-1-yl)benzamide] | – | 353 nM | – | – | 18 nM
27 | COCC(C)(c1ccc(Cl)cc1)c1csc(NC(=O)c2c(F)cc(N3CCNCC3)cc2F)n1 (stereo not shown) [Example C016, N-(4-(2-(4-chlorophenyl)-1-methoxypropan-2-yl)thiazol-2-yl)-2,6-difluoro-4-(piperazin-1-yl)benzamide] | – | 1590 nM | – | – | 16 nM
28 | COC[C@@](C)(c1ccccc1)c1csc(NC(=O)c2c(F)cc(N3CCNCC3)cc2F)n1 [Example C018, (S)-2,6-difluoro-N-(4-(1-methoxy-2-phenylpropan-2-yl)thiazol-2-yl)-4-(piperazin-1-yl)benzamide] | – | 1920 nM | – | – | 36 nM
29 | CC#CC(C)(c1ccc(Cl)cc1)c1csc(NC(=O)c2c(F)cc(N3CCNCC3)cc2F)n1 (stereo not shown) [Example C039, N-(4-(2-(4-chlorophenyl)pent-3-yn-2-yl)thiazol-2-yl)-2,6-difluoro-4-(piperazin-1-yl)benzamide] | – | 959 nM | – | – | 36 nM
30 | C#Cc1ccc(C(C)(C#C)c2csc(NC(=O)c3c(F)cc(N4CCNCC4)cc3F)n2)cc1 (stereo not shown) [Example C042, N-[4-[1-(4-ethynylphenyl)-1-methyl-prop-2-ynyl]thiazol-2-yl]-2,6-difluoro-4-piperazin-1-yl-benzamide] | – | 225 nM | – | – | 101 nM
31 | CC(c1ccccc1)(c1ccc(Cl)cc1)c1csc(NC(=O)c2c(F)cc(N3CCNCC3)cc2F)n1 (stereo not shown) [Example C046, N-(4-(1-(4-chlorophenyl)-1-phenylethyl)thiazol-2-yl)-2,6-difluoro-4-(piperazin-1-yl)benzamide] | – | 4450 nM | – | – | 377 nM
